Earlier results as cited in publication PMC9963398, “Discovery of New Quinolone-Based Diarylamides as Potent B-RAF^V600E/C-RAF Kinase Inhibitors Endowed with Promising In Vitro Anticancer Activity” (International Journal of Molecular Sciences, 2023).

Tests used:
786-0 = system: 786-0; design: method as in PMID 32745753; conditions: 786-0, Renal cancer; cited from earlier work
NCI-H322M = system: NCI-H322M; design: method as in PMID 32745753; conditions: NSCL cancer; cited from earlier work
SR = system: SR; design: method as in PMID 32745753; conditions: Leukemia; cited from earlier work
MALME-3M = system: MALME-3M; design: method as in PMID 32745753; conditions: Melanoma; cited from earlier work
K-562 = system: K-562; design: method as in PMID 32745753; conditions: K-562, Leukemia; cited from earlier work
TK-10 = system: TK-10; design: method as in PMID 32745753; conditions: TK-10, Renal cancer; cited from earlier work
A549/ATCC = system: A549/ATCC; design: method as in PMID 32745753; conditions: NSCL cancer; cited from earlier work
ACHN = system: ACHN; design: method as in PMID 32745753; conditions: Renal cancer; cited from earlier work
EKVX = system: EKVX; design: method as in PMID 32745753; conditions: NSCL cancer; cited from earlier work
BT-549 = system: BT-549; design: method as in PMID 32745753; conditions: BT-549, Breast cancer; cited from earlier work
SW-620 = system: SW-620; design: method as in PMID 32745753; conditions: SW-620, Colon cancer; cited from earlier work
RXF 393 = system: RXF 393; design: method as in PMID 32745753; conditions: RXF 393, Renal cancer; cited from earlier work
PC-3 = conditions: PC-3, Prostate cancer; cited from earlier work
U251 = system: U251; design: method as in PMID 32745753; conditions: U251, CNS cancer; cited from earlier work
MDA-MB-435 = system: MDA-MB-435; design: method as in PMID 32745753; conditions: MDA-MB-435, Melanoma; cited from earlier work
CAKI-1 = system: CAKI-1; design: method as in PMID 32745753; conditions: CAKI-1, Renal cancer; cited from earlier work
HOP-62 = system: HOP-62; design: method as in PMID 32745753; conditions: HOP-62, NSCL cancer; cited from earlier work
HCC-2998 = system: HCC-2998; design: method as in PMID 32745753; conditions: HCC-2998, Colon cancer; cited from earlier work
T-47D = system: T-47D; design: method as in PMID 32745753; conditions: Breast cancer; cited from earlier work
NCI-H460 = system: NCI-H460; design: method as in PMID 32745753; conditions: NCI-H460, NSCL cancer; cited from earlier work
COLO 205 = system: COLO 205; design: method as in PMID 32745753; conditions: COLO 205, Colon cancer; cited from earlier work
MDA-MB-468 = conditions: MDA-MB-468, Breast cancer; cited from earlier work
IGROV1 = system: IGROV1; design: method as in PMID 32745753; conditions: IGROV1, Ovarian cancer; cited from earlier work
SF-539 = system: SF-539; design: method as in PMID 32745753; conditions: SF-539, CNS cancer; cited from earlier work
SNB-19 = system: SNB-19; design: method as in PMID 32745753; conditions: SNB-19, CNS cancer; cited from earlier work
UACC-62 = system: UACC-62; design: method as in PMID 32745753; conditions: UACC-62, Melanoma; cited from earlier work
MDA-MB-231/ATCC = conditions: Breast cancer; cited from earlier work
HOP-92 = system: HOP-92; design: method as in PMID 32745753; conditions: HOP-92, NSCL cancer; cited from earlier work
OVCAR-4 = system: OVCAR-4; design: method as in PMID 32745753; conditions: OVCAR-4, Ovarian cancer; cited from earlier work
OVCAR-3 = system: OVCAR-3; design: method as in PMID 32745753; conditions: OVCAR-3, Ovarian cancer; cited from earlier work
M14 = system: M14; design: method as in PMID 32745753; conditions: M14, Melanoma; cited from earlier work
KM12 = system: KM12; design: method as in PMID 32745753; conditions: KM12, Colon cancer; cited from earlier work
SN12C = system: SN12C; design: method as in PMID 32745753; conditions: Renal cancer; cited from earlier work
A498 = system: A498; design: method as in PMID 32745753; conditions: A498, Renal cancer; cited from earlier work
SK-MEL-28 = system: SK-MEL-28; design: method as in PMID 32745753; conditions: SK-MEL-28, Melanoma; cited from earlier work
RPMI-8226 = system: RPMI-8226; design: method as in PMID 32745753; conditions: RPMI-8226, Leukemia; cited from earlier work
OVCAR-5 = system: OVCAR-5; design: method as in PMID 32745753; conditions: OVCAR-5, Ovarian cancer; cited from earlier work

CNC(=O)c1cc(Oc2ccc(NC(=O)Nc3ccc(Cl)c(C(F)(F)F)c3)cc2)ccn1 [Sorafenib]
GI50 (786-0): 3400 nM
GI50 (NCI-H322M): 2800 nM
GI50 (SR): 3100 nM
GI50 (MALME-3M): 2200 nM
GI50 (K-562): 2800 nM
GI50 (TK-10): 4400 nM
GI50 (A549/ATCC): 2900 nM
GI50 (ACHN): 2800 nM
GI50 (EKVX): 2500 nM
GI50 (BT-549): 3300 nM
GI50 (SW-620): 2800 nM
GI50 (RXF 393): 3400 nM
GI50 (PC-3): 2000 nM
GI50 (U251): 2100 nM
GI50 (MDA-MB-435): 1800 nM
GI50 (CAKI-1): 2900 nM
GI50 (HOP-62): 1900 nM
GI50 (HCC-2998): 3000 nM
GI50 (T-47D): 1800 nM
GI50 (NCI-H460): 2300 nM
GI50 (COLO 205): 2200 nM
GI50 (MDA-MB-468): 2000 nM
GI50 (IGROV1): 2600 nM
GI50 (SF-539): 1600 nM
GI50 (SNB-19): 3400 nM
GI50 (UACC-62): 1700 nM
GI50 (MDA-MB-231/ATCC): 1300 nM
GI50 (HOP-92): 1600 nM
GI50 (OVCAR-4): 3500 nM
GI50 (OVCAR-3): 2900 nM
GI50 (M14): 2200 nM
GI50 (KM12): 1600 nM
GI50 (SN12C): 2400 nM
GI50 (A498): 2300 nM
GI50 (SK-MEL-28): 2600 nM
GI50 (RPMI-8226): 1500 nM
GI50 (OVCAR-5): 2900 nM
